In experiment [1] the target is T1, SOCS3 (Homo sapiens, UniProt O14543).
T1 construct: Western blot analysis of cultured human (293) cells; endogenous in cells; host or cells: human 293 cells
T1 sequence (O14543 1-225): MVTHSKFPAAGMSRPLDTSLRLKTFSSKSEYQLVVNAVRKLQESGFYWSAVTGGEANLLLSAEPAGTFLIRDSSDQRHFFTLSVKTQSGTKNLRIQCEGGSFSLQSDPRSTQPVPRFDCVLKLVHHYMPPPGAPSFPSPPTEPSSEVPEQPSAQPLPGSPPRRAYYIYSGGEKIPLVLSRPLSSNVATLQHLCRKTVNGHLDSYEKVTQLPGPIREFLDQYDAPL
The experiment can be described thus: Western blot of phosphorylated STAT3 (SOCS3 inhibition), human 293 cells. It is filed as cell-based. The conditions noted are these: increasing concentration. How it is done:
(§1) Likewise, the inhibition of SOCS3 was tested following the phosphorylated form of STAT3.
A general note: A western blot detects proteins with antibodies after separation by electrophoresis.

The target in experiment [2] is T2, SOCS3 (Mus musculus, UniProt O35718).
T2 construct: Western blot analysis of cultured mouse (N2A) cells; endogenous in cells; host or cells: mouse N2A cells
T2 sequence (O35718 1-225): T1 sequence (O14543 1-225) with A133T, P137S, S138L, S152P, P155A, P160T, R162K
Kind of experiment: Western blot of phosphorylated STAT3 (SOCS3 inhibition), mouse N2A cells. It is filed as cell-based. The conditions noted are these: increasing concentration. How it is done:
as §1

The target in experiment [3] is T3, SOCS3 (Rattus norvegicus, UniProt O88583).
T3 construct: Western blot analysis of cultured rat (PC12) cells; endogenous in cells; host or cells: rat PC12 cells
T3 sequence (O88583 1-225): T1 sequence (O14543 1-225) with K85E, P137S, S138L, S145F, P148Q, S152P, P155A, S159G, P160T, R162K
Kind of experiment: Western blot of phosphorylated STAT3 (SOCS3 inhibition), rat PC12 cells. The conditions noted are these: increasing concentration. It is filed as cell-based. How it is done: as §1

Experiment [4] deals with T4, PTEN (Homo sapiens, UniProt P60484).
T4 construct: Western blot analysis of cultured human (293), mouse (N2A) and rat (PC12) cells; endogenous in cells; host or cells: human 293 cells
The experiment can be described thus: Western blot of phosphorylated AKT (PTEN inhibition), human 293 cells. Conditions: increasing concentrations, pAKT (Ser473). The format is cell-based. How it is done: (§2) FIGS. 13A-13D. Western blot analysis of cultured human (293) (FIG. 13A), mouse (N2A) (FIG. 13B) and rat (PC12) (FIG. 13C) cells treated with Luteolin (P2) and Quercetin (P6). FIG. 13D: Protein levels of PTEN, AKT, pAKT (Ser473) and beta-Tubulin were measured.
(§3) The inhibition of PTEN was tested following the phosphorylated form of AKT.

The target in experiment [5] is T5, PTEN (Mus musculus, UniProt O08586).
T5 construct: Western blot analysis of cultured human (293), mouse (N2A) and rat (PC12) cells; endogenous in cells; host or cells: mouse N2A cells
The experiment can be described thus: Western blot of phosphorylated AKT (PTEN inhibition), mouse N2A cells. The format is cell-based. The conditions noted are these: increasing concentrations, pAKT (Ser473). How it is done: as §2, §3

The target in experiment [6] is T6, PTEN (Rattus norvegicus, UniProt O54857).
T6 construct: Western blot analysis of cultured human (293), mouse (N2A) and rat (PC12) cells; endogenous in cells; host or cells: rat PC12 cells
Kind of experiment: Western blot of phosphorylated AKT (PTEN inhibition), rat PC12 cells. The format is cell-based. The conditions noted are these: increasing concentrations, pAKT (Ser473). How it is done: as §2, §3

In experiment [7] the test system is genes from the M77 network in DRG neurons. The experiment can be described thus: qPCR of critical PPI network genes in DRG neurons treated with ambroxol. Conditions: DRG neurons treated with 60 mM ambroxol (4 days), P-value<0.05, includes ATF3, FOS, JUN, SMAD1, SP1. The format is cell-based. The text has this: (§4) FIGS. 5A-5F. Targeting candidate RAG regulatory network using small-molecules. Gene expression signatures after PNS injury were used to query drug-related expression profiles in the Connectivity Map. Using a pattern-matching algorithm, we selected three drugs (ambroxol, disulfiram and lasalocid) based on enrichment and specificity scores. FIG. 5A: Protein-protein interaction (edges) network of co-expressed and differentially expressed genes (nodes) after PNS injury depicting up-regulation and down-regulation after SN lesion; up-regulation and down-regulation after ambroxol treatment (from Connectivity Map). FIG. 5B: Histogram depicting differences in DRG neurite outgrowth after treatment with drugs. […] FIG. 5C: Histogram depicting differential expression of mRNA for critical genes in PPI network validated by qPCR of DRG neurons treated with […] ambroxol (4 days). Legend (FIG. 5C, top to bottom): ATF3, CASP3, EGR1, FOS, JAK2, JUN, KLF4, MYC, PLAUR, RELA, SMAD1, SP1, STAT1 and STAT3: FIGS. 5D-5F: Ambroxol concentration response. […] FIG. 5E: Photomicrographs of DRG neurons in presence of vehicle (control) or 40 μM ambroxol, immunostained for βIII-tubulin. Images acquired using ImagExpressmicro. Scale bar, 50 μm. FIG. 5F: Histogram depicting concentration-response for neurite outgrowth per neuron vs. ambroxol concentration, mean±SEM for three independent experiments. […]

Experiment [8] deals with optic nerve / retinal ganglion cell axons. Kind of experiment: optic nerve regeneration after crush injury in C57BL/6 mice. The format is in vivo, mouse. The conditions noted are these: between 200-500 um, after 2 weeks, vs control animals, p-value less than 0.04. How it is done:
FIGS. 6A-6E. Ambroxol promotes retinal ganglion cell axonal regeneration. FIG. 6A: Ambroxol (Amb-25 mg/ml) or vehicle (Veh) was injected into the eye just before optic nerve crush (ONC-Day 1). Animals received daily […] of ambroxol (25 mg/ml) or vehicle by intraperitoneal (IP) injection from day 1 to day 14. At day 7 ambroxol (25 mg/ml) or vehicle was injected into the eye. Tracer CTB was injected into the eye on day 11 and animals sacrificed on day 14. FIG. 6B: Representative retina whole mount images with Tuj1 antibody staining 2 weeks post injury and (FIG. 6C) histogram depicting quantification of retinal ganglion cell (RGCs) survival measured by Tuj1 antibody staining Scale bar: 25 um FIG. 6D: Representative confocal images of optic nerve sections from WT animal treated with vehicle (n=10) and WT animal treated with ambroxol (25 mg/ml, n=13). Axons are labeled with CTB. Scale bar: 100 um. Measurements were made blinded to treatment. FIG. 6F: Quantification of number of axons in FIG. 6D as function of distance from crush site. T-test ** p<0.001 * p<0.05.
Ambroxol was tested for the ability to enhance CNS regeneration in vivo after injury. The optic nerve regeneration effect in mice after crush injury was evaluated after treating with and without ambroxol. […] In summary, a FDA approved drug—ambroxol accelerates and improves neural repair in the CNS. […]

For experiment [9] the test system is unchanged. Kind of experiment: optic nerve crush in PTEN knockout mice treated with ambroxol. Conditions: at 2500 um, after 2 weeks, vs control animals, p-value 0.02. It is filed as in vivo, mouse. How it is done:
FIGS. 15A-15E. Ambroxol promotes retinal ganglion cell axonal regeneration in PTEN knockout mice. Ambroxol (Amb-25 mg/ml) or vehicle (Veh) was injected into the eye just before optic nerve crush. Animals received daily 300 mg/kg of ambroxol or vehicle by intraperitoneal (IP) injection for the first five days after the crush and then they received 150 mg/kg until day 14. At day 7 ambroxol (25 mg/ml) or vehicle was injected into the eye. Tracer CTB was injected into the eye on day 11 and animals sacrificed on day 14. FIG. 15A: Representative confocal images of optic nerve sections from PTEN^−/− animal treated with vehicle (n=4) and PTEN^−/− animal treated with ambroxol (n=4). Axons are labeled with CTB. Scale bar: 100 um. Measurements were made blinded to treatment. FIG. 15B: Quantification of number of axons in […]. T-test ** p<0.01 * p<0.05. FIG. 15C: Representative retina whole mount images with Tuj1 and P-S6 antibody staining 2 weeks post injury and FIGS. 15D-15E: Quantification of retinal ganglion cell (RGCs) survival measured by Tuj1 and P-S6 antibody staining Scale bar: 25 um.
Without wishing to be bound by any theory, since ambroxol recapitulates many of the core expression changes in the M280, we reasoned that it would promote CNS regeneration. […]

The next experiment concerns DRG neurons. The experiment can be described thus: neurite outgrowth in DRG neurons after treatment with drugs. The format is cell-based. The conditions noted are these: vs control; p<0.05, t-test; FIG. 5B.
Source text: as §4

Experiment [10] concerns regeneration-associated marker genes. Kind of experiment: q-RT-PCR of regeneration-associated marker genes after treatment with candidate drugs. The format is cell-based, mouse. Conditions: N2A cell lines treated 48 hours, Gapdh internal control, FIG. 10. How it is done:
FIG. 10. Quantitative real-time RT-PCR after treatment of candidate drugs. N2A cell lines were treated with the corresponding drugs for 48 hours and the expression levels of the marker genes was measured by q-RT-PCR, using Gapdh as internal control. Nodes represents the genes tested, the edges represent the direction of regulation (i.e., up-regulation, downregulation) and the edge size represents the extent of fold change.
The gene expression signatures were used to identify FDA approved drugs (Lamb 2007) that may modulate the signaling pathways and gene expression necessary for regeneration. […] Based on the results obtained from the pattern matching algorithm present within the Connectivity Map database, the top three matching expression patterns were chosen based on the connectivity and specificity score, which represented the drugs (ambroxol, lasalocid, and disulfiram). The identified compounds were tested for their effect on gene expression levels of regeneration-associated marker genes and to examine the effect on neurite outgrowth in DRG neurons. […] Since the original pattern was derived from non-neuronal cell lines (30), we tested if ambroxol can change the gene-expression levels of these markers in DRG neurons. […] But, it had no previous relationship to regeneration.

Numbering of substitutions follows the chain as printed.

T4 sequence (P60484 whole entry): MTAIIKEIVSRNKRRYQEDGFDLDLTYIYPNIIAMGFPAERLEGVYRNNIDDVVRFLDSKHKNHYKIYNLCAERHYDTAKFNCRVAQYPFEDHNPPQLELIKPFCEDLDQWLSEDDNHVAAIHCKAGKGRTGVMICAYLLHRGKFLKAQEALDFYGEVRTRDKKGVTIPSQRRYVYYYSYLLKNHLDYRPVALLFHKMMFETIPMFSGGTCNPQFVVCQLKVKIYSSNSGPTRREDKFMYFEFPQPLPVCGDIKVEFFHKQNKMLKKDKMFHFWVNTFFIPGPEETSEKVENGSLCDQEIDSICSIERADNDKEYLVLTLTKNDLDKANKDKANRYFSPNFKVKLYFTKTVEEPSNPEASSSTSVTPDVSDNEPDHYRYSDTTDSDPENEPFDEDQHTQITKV
T5 sequence (O08586 whole entry): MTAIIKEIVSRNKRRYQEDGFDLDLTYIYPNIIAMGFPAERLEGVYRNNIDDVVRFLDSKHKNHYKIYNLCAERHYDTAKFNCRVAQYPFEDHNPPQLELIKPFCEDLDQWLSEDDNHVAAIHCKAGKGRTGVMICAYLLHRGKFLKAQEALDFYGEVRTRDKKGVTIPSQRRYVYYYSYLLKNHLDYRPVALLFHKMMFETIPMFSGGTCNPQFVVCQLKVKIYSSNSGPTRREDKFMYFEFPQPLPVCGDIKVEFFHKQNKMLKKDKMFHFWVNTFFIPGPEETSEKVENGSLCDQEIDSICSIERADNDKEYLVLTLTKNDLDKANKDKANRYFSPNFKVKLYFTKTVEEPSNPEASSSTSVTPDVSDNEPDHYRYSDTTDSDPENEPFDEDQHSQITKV
T6 sequence (O54857 whole entry): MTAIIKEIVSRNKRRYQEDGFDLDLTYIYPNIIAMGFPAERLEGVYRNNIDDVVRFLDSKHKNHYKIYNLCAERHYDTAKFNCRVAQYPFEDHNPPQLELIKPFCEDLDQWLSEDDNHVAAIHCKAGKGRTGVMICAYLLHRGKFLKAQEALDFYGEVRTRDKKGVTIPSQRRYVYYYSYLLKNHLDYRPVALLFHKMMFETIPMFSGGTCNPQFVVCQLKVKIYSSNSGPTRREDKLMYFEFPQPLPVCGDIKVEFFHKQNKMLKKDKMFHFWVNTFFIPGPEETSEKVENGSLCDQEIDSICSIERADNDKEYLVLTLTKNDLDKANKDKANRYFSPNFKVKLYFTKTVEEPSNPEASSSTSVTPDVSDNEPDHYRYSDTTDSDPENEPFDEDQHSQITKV

In the case of `O=c1c(-c2ccc(O)cc2)coc2cc(O)cc(O)c12` [Genistein, genistein], the “expression level of phosphorylated form of STAT3 (denoting SOCS3 inhibition)” value on SOCS3 [1], at SOCS3 [2] and on SOCS3 [3] was “increased expression level of phosphorylated form of STAT3” throughout.
Take `O=c1cc(-c2ccc(O)c(O)c2)oc2cc(O)cc(O)c12` [Luteolin, luteolin]: the “expression level of phosphorylated form of AKT (denoting PTEN inhibition)” value at PTEN [4], on PTEN [5] and on PTEN [6] was “increased expression level of phosphorylated form of AKT” throughout.
As for `Cc1ccc(N(CC2=NCCN2)c2cccc(O)c2)cc1` [Phentolamine, phentolamine], the “expression level of phosphorylated form of STAT3 (denoting SOCS3 inhibition)” value on SOCS3 [1], on SOCS3 [2] and on SOCS3 [3] was “increased expression level of phosphorylated form of STAT3” throughout.
As for `O=c1c(O)c(-c2ccc(O)c(O)c2)oc2cc(O)cc(O)c12` [Quercetin, quercetin], the “expression level of phosphorylated form of AKT (denoting PTEN inhibition)” value at PTEN [4], at PTEN [5] and on PTEN [6] was “increased expression level of phosphorylated form of AKT” throughout.
Take `Nc1c(Br)cc(Br)cc1CNC1CCC(O)CC1` (stereo not drawn) [ambroxol, trans-4-(2-Amino-3,5-dibrombenzylamino)-cyclohexanol]: the “number of genes with significant differential expression among 14 randomly tested genes from the M77” value in [7] turned out to be 8 genes. Besides, the “increase in axon regeneration beyond the site of the lesion” value in experiment [8] is recorded as greater than 1.5 fold. In addition, the “increase in regeneration beyond the site of the lesion” value in [9] is given as greater than 2.9 fold.
Consider `CC[C@@H](C(=O)[C@@H](C)[C@@H](O)[C@H](C)CCc1ccc(C)c(O)c1C(=O)O)[C@H]1O[C@](CC)([C@H]2CC[C@](O)(CC)[C@H](C)O2)C[C@@H]1C` [lasalocid], for which the “DRG neurite outgrowth after treatment with drugs” value with DRG neurons is “only ambroxol showed significant enhancement”. Moreover, in experiment [10], the “gene-expression levels of marker RAGs” value is reported as “significant changes”.

These data come from patent US20150190377A1, “NEURONAL REGENERATION” (The Regents of the University of California, a California …, priority 2014, published 2015).
